Reference: article PMC6774887 (Molecular cancer therapeutics, 2019)

Key:
[1] = target: T1, AICARFTase (ATIC) (Homo sapiens, UniProt P31939); experiment: spectrophotometric THF formation; format: biochemical
[2] = target: T1, AICARFTase (ATIC); experiment: spectrophotometric THF formation from 10-formyl-THF; format: biochemical; conditions: Ki = IC50/([S]/KM+[…]); KM of […]-formyl-THF […]
[3] = target: T2, MTHFD2 (Homo sapiens, UniProt P13995); experiment: NAD; format: biochemical
T2 sequence (P13995 36-333): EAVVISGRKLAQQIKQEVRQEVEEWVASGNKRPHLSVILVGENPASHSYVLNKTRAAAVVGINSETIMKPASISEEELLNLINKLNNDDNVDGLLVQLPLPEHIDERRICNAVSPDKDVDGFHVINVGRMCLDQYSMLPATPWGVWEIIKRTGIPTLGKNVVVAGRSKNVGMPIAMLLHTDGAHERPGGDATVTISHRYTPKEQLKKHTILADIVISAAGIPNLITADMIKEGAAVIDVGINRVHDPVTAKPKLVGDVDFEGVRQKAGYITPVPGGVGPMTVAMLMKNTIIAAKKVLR

[4] = target: T3, SHMT1 (Homo sapiens, UniProt P34896); experiment: coupled SHMT/MTHFD2 assay, NADH fluorescence; format: biochemical; conditions: Ki = IC50/([S]/KM+[…]); KM of THF […]; His-MTHFD2 in […] molar excess
T3 sequence (P34896 7-478): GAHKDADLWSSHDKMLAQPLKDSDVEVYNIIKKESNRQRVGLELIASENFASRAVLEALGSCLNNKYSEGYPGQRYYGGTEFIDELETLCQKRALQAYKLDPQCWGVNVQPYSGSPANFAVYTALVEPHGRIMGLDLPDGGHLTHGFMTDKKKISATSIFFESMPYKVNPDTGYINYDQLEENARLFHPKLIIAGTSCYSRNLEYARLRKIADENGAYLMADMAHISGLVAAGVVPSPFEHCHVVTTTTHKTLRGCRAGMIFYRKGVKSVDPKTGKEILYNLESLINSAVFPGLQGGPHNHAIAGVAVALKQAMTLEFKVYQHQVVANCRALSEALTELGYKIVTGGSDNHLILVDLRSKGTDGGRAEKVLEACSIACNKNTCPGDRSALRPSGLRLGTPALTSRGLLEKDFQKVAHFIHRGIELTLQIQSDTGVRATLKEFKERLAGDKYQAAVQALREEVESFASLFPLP

[5] = target: T4, SHMT2 (Homo sapiens, UniProt P34897); experiment: coupled SHMT/MTHFD2 assay, NADH fluorescence; format: biochemical; conditions: Ki = IC50/([S]/KM+[…]); KM of THF […]; His-MTHFD2 in […] molar excess
T4 sequence (P34897 42-504): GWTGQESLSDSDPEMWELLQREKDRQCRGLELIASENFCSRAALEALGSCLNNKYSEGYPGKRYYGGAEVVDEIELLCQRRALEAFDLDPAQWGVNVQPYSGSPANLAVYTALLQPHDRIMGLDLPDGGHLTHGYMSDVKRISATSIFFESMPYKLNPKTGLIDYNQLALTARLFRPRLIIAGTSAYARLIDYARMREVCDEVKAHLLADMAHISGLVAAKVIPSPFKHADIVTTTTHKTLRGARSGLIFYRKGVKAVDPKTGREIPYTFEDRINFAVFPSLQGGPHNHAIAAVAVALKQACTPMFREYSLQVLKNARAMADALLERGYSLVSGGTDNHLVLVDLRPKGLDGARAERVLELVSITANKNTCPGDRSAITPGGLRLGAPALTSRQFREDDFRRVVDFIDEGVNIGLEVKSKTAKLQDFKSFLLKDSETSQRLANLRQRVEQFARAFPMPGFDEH

[6] = target: T3, SHMT1; experiment: coupled SHMT/MTHFD2 assay, NADH fluorescence; format: biochemical; conditions: His-MTHFD2 in […] molar excess
[7] = target: T4, SHMT2; experiment: coupled SHMT/MTHFD2 assay, NADH fluorescence; format: biochemical; conditions: His-MTHFD2 in […] molar excess
[8] = substrate: Nc1nc2c(c(=O)[nH]1)N[C@@H](CN(C=O)c1ccc(C(=O)N[C@@H](CCC(=O)O)C(=O)O)cc1)CN2; experiment: spectrophotometric THF formation; format: biochemical, Homo sapiens

T1 sequence (P31939 whole entry): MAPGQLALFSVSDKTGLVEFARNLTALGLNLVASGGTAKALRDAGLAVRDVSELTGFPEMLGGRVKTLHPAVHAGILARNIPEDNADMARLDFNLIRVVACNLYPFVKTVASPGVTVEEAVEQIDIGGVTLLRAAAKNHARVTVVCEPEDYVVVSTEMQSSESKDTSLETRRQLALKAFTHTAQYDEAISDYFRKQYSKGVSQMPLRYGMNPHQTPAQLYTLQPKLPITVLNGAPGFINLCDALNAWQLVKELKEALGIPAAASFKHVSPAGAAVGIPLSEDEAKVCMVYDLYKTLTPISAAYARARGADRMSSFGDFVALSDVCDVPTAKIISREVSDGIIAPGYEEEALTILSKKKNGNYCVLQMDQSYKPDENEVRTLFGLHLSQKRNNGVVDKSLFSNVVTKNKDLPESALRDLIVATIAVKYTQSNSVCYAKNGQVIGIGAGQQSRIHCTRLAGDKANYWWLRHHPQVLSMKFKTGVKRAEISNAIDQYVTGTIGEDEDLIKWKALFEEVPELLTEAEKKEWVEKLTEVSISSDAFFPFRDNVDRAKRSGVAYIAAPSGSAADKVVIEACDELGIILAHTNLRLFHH

Molecule: Nc1nc2c(c(=O)[nH]1)N[C@@H](CN(C=O)c1ccc(C(=O)N[C@@H](CCC(=O)O)C(=O)O)cc1)CN2 [10-formyl-THF]
- Km [1]: 100 µM

Molecule: Nc1nc2[nH]c(CCCc3ccc(C(=O)N[C@@H](CCC(=O)O)C(=O)O)s3)cc2c(=O)[nH]1 [AGF94]
- NI (no inhibition up to 200 μM inhibitor; Ki column) [2]: > 200 µM
- NI (no inhibition up to 200 μM inhibitor; Ki column) [3]: > 200 µM

Molecule: Nc1nc(=O)c2c(CCc3ccc(C(=O)N[C@@H](CCC(=O)O)C(=O)O)cc3)c[nH]c2[nH]1 [PMX]
- NI (no inhibition up to 200 μM inhibitor; Ki column) [4]: > 200 µM
- NI (no inhibition up to 200 μM inhibitor; Ki column) [3]: > 200 µM
- NI (no inhibition up to 200 μM inhibitor; Ki column) [5]: > 200 µM

Molecule: Nc1nc2c(c(=O)[nH]1)N[C@@H](CNc1ccc(C(=O)N[C@@H](CCC(=O)O)C(=O)O)cc1)CN2 [THF]
- Km [6]: 62.8 µM
- Km [7]: 108 µM

Molecule: AGF320
- NI (no inhibition up to 200 μM inhibitor; Ki column) [3]: > 200 µM

B1: GARFTase (Homo sapiens) (protein)
chain: ARVAVLISGTGSNLQALIDSTREPNSSAQIDIVISNKAAVAGLDKAERAGIPTRVINHKLYKNRVEFDSAIDLVLEEFSIDIVCLAGFMRILSGPFVQKWNGKMLNIHPSLLPSFKGSNAHEQALETGVTVTGCTVHFVAEDVDAGQIILQEAVPVKRGDTVATLSERVKLAEHKIFPAALQLVASGTVQLGENGKICWVKEE
- Km [8]: 84.8 µM
